Reference: patent publication US10053432B2, “Substituted [1,2,4]triazole and imidazole compounds” (BASF SE, priority 2013, dated 2018)

Columns and labels:
Type in all cases: cell-based
Conditions in all cases: at 31 ppm; absorption at 405 nm 7 days after inoculation; relative to active compound-free control (100%)
Septoria tritici = assay: Activity against leaf blotch on wheat caused by Septoria tritici (Septtr), microtiterplate test
Botrytis cinerea = assay: Activity against the grey mold Botrytis cinerea in the microtiterplate test (Botrci)
Pyricularia oryzae = system: Pyricularia oryzae

Measured: growth (relative growth in % of the pathogen)

OC(Cn1cncn1)(c1ccc(C#CC2CC2)cc1Cl)C1CC1 (stereo not drawn) [Compound I-1, 1-[2-chloro-4-(2-cyclopropylethynyl)phenyl]-1-cyclopropyl-2-(1,2,4-triazol-1-yl)ethanol]
0%: all assays above
